Measurements from patent US20230312652A1, “NOVEL PEPTIDES AND USES THEREOF” (Aarhus Universitet, priority 2020, published 2023).
Where a SMILES comes first, the peptide text is derived from it.

Legend:
[1] = tested on: BDNF, PGC1a and TFEB in GM04719 fibroblasts; assay: BDNF, PGC1a and TFEB levels in HD patient-derived fibroblasts, western blotting; type: cell-based, human; settings: 1 uM
Protocol: To validate the therapeutic potential of P1 in Huntington's Disease, we likewise assessed whether P1 could increase the three distinct pathways in fibroblasts derived from a HD patient. The fibroblasts were bought from Coriell Biobank. The patient-derived fibroblasts, named GM04719, was sampled from a person with clinical onset […]. The patient has 44-CAG repeats in their HTT-gene.
To assess target engagement by P1, 30,000-50,000 fibroblasts were seeded per well in a 96-well plate. The following day, the cells were treated with 1 uM of P1 and incubated at 37° C. and 5% CO2 at timepoints between 2-24 hours. Hereafter, the cells were lysed in RIPA lysis buffer containing cOmplete cocktail protease inhibitor. BDNF, PGC1a and TFEB levels were analysed by western blotting normalized to beta-actin.

[2] = tested on: GRN+/- hippocampal neurons; assay: Lysosomal acidification in GRN+/- hippocampal neurons, LysoSensor DND-189; type: cell-based, mouse; settings: 1 uM, 4 hours
Protocol: Primary hippocampal neurons from GRN+/− mice were seeded in an 8-well ibidi chamber pre-coated with Poly-I and laminin. 75,000 neurons were seeded pr. well. After 5 days in vitro the neurons were stimulated for 4, 8 or 24 hours with peptide P1 at 1 uM in neurobasal A with B27. After stimulation, the medium was changed to pre-warmed (37° C.) neurobasal A containing 1 uM of LysoSensor probe DND-189 (an acidotropic probes that accumulates in acidic organelles as the result of protonation) and incubated for 30 min. at 37° C. in a 5% C02 atmosphere. Hereafter, the media was changed to pre-warmed FluoroBrite Medium and the neurons were imaged in Olympus microscopy system. Pictures were taken of the lysosomes and processed using the ScanR imaging software to give fluorescence (intensity) of each lysosomal vesicle. The summed total intensity of all lysosomes was calculated and divided by the total number of neurons imaged yielding the total intensity of lysosomes per neuron. Student's t-test was used for statistical analysis.

CYP450 enzymes = assay: Cytochrome P450 inhibition in liver microsomes; type: in vitro ADME; settings: dose-range of P1, with or without NADPH
Protocol: Liver microsomes were prepared with cocktails of known substrates of the respective CYP450 enzymes to evaluate the effects of P1 on enzyme inhibition. For each CYP-enzyme a previously described inhibitor was used as a positive control. Sample solutions were pre-incubated with P1 (10 mM) or inhibitor at 37° C. for ten minutes before addition of NADPH. Enzyme activity was measured in samples containing a dose-range of P1 with or without NAPDH (substrate used by the liver enzymes in detoxification steps). Reactions were incubated for 10 minutes before the reactions were stopped and analysed by LCMS to detect CYP metabolites.

CREB = CREB activation (phosphorylation on serine 133) in wild-type cortical neurons, western blotting; type: cell-based, mouse; settings: 20 minutes, 7 days in vitro
Protocol: (§1) To assess the ability of peptides P1, P2 and P6, respectively, to activate transcription factor CREB, cortical neurons were isolated from p0 wild-type mice and seeded in a density of 500.000 per well. After 7 days in vitro the neurons were stimulated with the different peptide variants at 1 uM in neurobasal A media and incubated at 37° C. and 5% C02 for 20 minutes. Hereafter, the neurons were lysed in lysis buffer containing DTT and cOmplete cocktail protease inhibitor and subsequently sonicated to disrupt the nuclear membrane. The phosphorylation of CREB on serine 133 was validated by western blotting normalized to beta-actin. As control, cells were stimulated with a scrambled peptide (Scr). Student's t-test was used for statistical analysis.
as §1, with “The” for “To assess the”, “peptide P1” for “peptides P1, P2”, “a linear peptide analog of P1 with acetylated N- and amidated C-terminals (referred to as LP1)” for “P6, respectively,”, “CREB was assessed. Cortical” for “CREB, cortical”, “20 nM” for “1 uM”, “CO2” for “C02”

CREB and AMPK = CREB and AMPK activation in brain of wild-type mice after subcutaneous injection; type: in vivo, mouse; settings: SC
Protocol: To assess the subcutaneous administration route of peptide P1, 8 weeks old wild-type mice were subcutaneously injected with different doses ranging between 0.13 to 26 mg/kg of peptide P1 dissolved in 4.38 mM L-His, 140 mM NaCl, 0.2% Tween-20 and 1500 IU hyaluronidase (pH 6.15). Likewise, was an earlier lead peptide constituting a linear version of P1 attached to a cell-penetrating moiety (P9, SEQ ID NO: 9), tested for its ability to activate CREB in both striatum and hippocampus (in a separate study) following subcutaneous injection with 3.6 mg/kg. 2 hours after injection the mice were sacrificed by cervical dislocation and striatal tissue was isolated by dissection and snap frozen in liquid nitrogen and stored at −80° C. until further use. To assess the activation of CREB and AMPK, the tissue was lysed using a TissueLyser in lysis buffer containing cOmplete and DTT. The samples were subsequently homogenized by sonication. The phosphorylation of CREB on serine 133 and threonine 172 on AMPK was subsequently validated by western blotting and the levels of were normalized to beta-actin. Student's t-test was used for statistical analysis.

GRN = GRN levels in hippocampus of wild-type mice after 7 days daily SC treatment; type: in vivo, mouse; settings: 13 mg/kg SC daily for 7 days, sacrificed on day 8
Protocol: Wild-type mice were injected with a daily dose of 13 mg/kg of P1 (SEQ ID NO: 1) subcutaneously in 4.38 mM L-His, 140 mM NaCl, 0.2% Tween-20 and 1500 IU hyaluronidase (pH 6.15) for 7 days. The mice were sacrificed on day 8. The hippocampus was isolated and lysed using a TissueLyser in RIPA lysis buffer containing cOmplete and phosSTOP. Levels of GRN (ab HPA008763 from Sigma) was validated by western blotting normalized to beta-actin. Student's t-test was used for statistical analysis.

CSCC[C@@H]1NC(=O)[C@H](C(C)C)NC(=O)[C@H](CC(=O)O)NC(=O)[C@H](CCC(=O)O)NC(=O)[C@H](CCC(=O)O)NC(=O)[C@H](Cc2c[nH]cn2)NC(=O)[C@H](CCC(=O)O)NC(=O)[C@H](C(C)C)NC(=O)[C@@H]2CCCN2C(=O)[C@H](CCC(=O)O)NC(=O)[C@H]([C@@H](C)O)NC1=O [Peptide P1, [MTEPVEHEEDV]] (cyclo(MTEPVEHEEDV))
PGC1a level ([1]; 6 hours of treatment): upregulated | TFEB level ([1]; 6 hours of treatment): upregulated | BDNF level ([1]; after 24 hours): significantly upregulated | lysosomal intensity (lysosomal acidification) [2]: lysosomal intensity was increased | CYP-inhibition (CYP450 enzymes): no CYP-inhibition effects | activation of CREB (phosphorylation on serine 133) compared to scrambled peptide (CREB; 20 nM): activated CREB | activation of CREB (phosphorylation on serine 133) compared to scrambled peptide (CREB; 1 uM): markedly activated CREB | dose resulting in the highest efficacy (CREB and AMPK; CREB and AMPK activation in striatum): 13 mg/kg | pAMPK in striatum (CREB and AMPK; doses between 0.13-13 mg/kg, 2 hours after injection): significantly activated | pCREB (S133) in striatum (CREB and AMPK; doses between 0.13-26 mg/kg, 2 hours after injection): significantly activated | GRN levels in hippocampus (GRN): higher levels of GRN
